According to patent publication US20220276262A1, “Methods and Products for Assessing Lysosomal System Flux” (SOUTH AUSTRALIAN HEALTH AND MEDICAL RESEARCH INSTITUTE …, priority 2019, published 2022):
“Also recorded” adds a separate entry of the source.

Columns and labels:
LC3B-II in PBMCs = test: Autophagic flux in PBMCs by lysosomal inhibition in whole blood, LC3B western blot; format: cell-based, human
Experimental: Blood was collected in lithium heparin (Greiner Bio-One, vacuette tube 9 ml lithium heparin, 455084), or EDTA (Greiner Bio-One, vacuette tube 9 ml K3EDTA, 455036) blood collection tubes (6-9 ml). Unless otherwise stated, blood samples were split into two (2×3 ml) and pipetted into 10 ml conical centrifuge tubes. One of the blood samples was treated with a final concentration of 150 μM of chloroquine (CQ, chloroquine diphosphate, Sigma Aldrich, C6628) (9 μl of 50 mM for a final volume of 3 ml of blood). Blood was mixed gently by inverting both tubes 3-4 times. Both tubes (+CQ and −CQ) were incubated at 37° C. for 1 hour with rotation (10 revolutions per minute, Thermo Scientific Tube Revolver, 88881002).
After blood was incubated for 1 hour at 37° C., blood tubes were kept on ice to stop enzyme activity and vesicular trafficking. PBMCs were then isolated using standard procedures. To each tube, 3 ml of cold DPBS (Dulbecco's Phosphate-Buffered Saline, GIBCO) was added to 3 ml of blood (1:1) and samples were mixed by gently inverting tubes 3-4 times. Four ml of Lymphoprep (Stemcell Technologies, 07811) was carefully underlayed beneath the blood/DPBS mixture using a 10 mL syringe and a canula (sterile). This was repeated for both blood tubes (containing blood incubated without and with CQ). Tubes containing blood/DPBS underlayed with lymphoprep were centrifuged for 30 min at 800 g, with brake off at 4° C.
PBMCs were carefully aspirated with a 1 mL pipette and dispensed into a 10 mL conical centrifuge tube (approximately 2 ml volume containing PBMCs). PBMCs were then diluted with cold DPBS to a final volume of 5 ml. PBMCs and DPBS were mixed gently by inverting tubes 3-4 times. PBMCs were then pelleted by centrifugation at 600 g for 10 min at 4° C. (with brake). The supernatant was discarded.
PBMCs were resuspended with 1 ml of red blood cell lysis buffer (1×, BD Biosciences, 555899) and were mixed by gently pipetting. PBMCs were left on ice for 2 minutes, after which they were pelleted by centrifugation at 600 g for 5 min at 4° C. The supernatant was discarded and PBMCs were washed by resuspension in 5 ml of cold DPBS. PBMCs were pelleted again by centrifugation at 600 g for 5 min at 4° C. The supernatant was discarded and the cells were again resuspended in 1 ml of cold DPBS and this suspension was transferred to a 1.5 ml microcentrifuge tube. This tube was centrifuged at 2,000 g for 10 min at 4° C. The supernatant was discarded and the pellet containing PBMCs was frozen on dry ice and stored at −80° C. until biochemical analyses.
PBMC pellets were resuspended in a lysis buffer containing protease and phosphatase inhibitors (10 mM Tris pH 7.0, 1 mM EDTA, 0.5 mM EGTA, 1% Triton X-100, 0.1% sodium deoxycholate, 0.1% SDS, 140 mM NaCl, 2.5 mM sodium pyrophosphate, 1 mM sodium orthovanadate, 1 mM β-glycerophosphate (pH 7.4) protease inhibitor cocktail Roche (1×). Cell suspensions were then sonicated on ice 2×20 sec. Cell lysates were centrifuged at 2,000 g for 10 min at 4° C. and the supernatant collected.
Total protein was measured using a micro BCA protein assay kit [Thermo Fisher Scientific 23235]. Western blot analysis was performed using 10 μg of total protein of each of the homogenates that were electrophoresed at 130 V for 1 hour through 4-12% Bis-Tris Plus SDS-PAGE gels (Bolt™, Invitrogen, Thermofisher Scientific). The gels were transferred to a methanol-activated PVDF membrane at 35 V for 70 min. […]

P62 in PBMCs = test: Whole blood incubation, P62 western blot in PBMCs; format: cell-based, human; details: chloroquine 0-200 μM in whole blood, 1 h at 37° C., four subjects
Experimental: (§1) Blood was mixed gently by inverting both tubes 3-4 times.
(§2) (with brake). The supernatant was discarded.
(§3) This tube was centrifuged at 2,000 g for 10 min at 4° C.
(§4) The gels were transferred to a methanol-activated PVDF membrane at 35 V for 70 min.
(§5) The membranes were incubated overnight at 4° C. with primary antibodies diluted in block solution on a tube roller.

SQSTM1/P62 in PBMCs = test: Primary culture of PBMCs with or without chloroquine, SQSTM1/P62 western blot; format: cell-based, human; details: 150 μM chloroquine, one-hour, isolated PBMCs in RPMI, N=3
Experimental: (§6) The supernatant was discarded.
Images were analyzed using ImageJ software.
These populations were verified by flow cytometry (FIG. 5B).

LC3A in PBMCs = test: Whole blood incubation, LC3A western blot in PBMCs; format: cell-based, human; details: chloroquine 0-200 μM in whole blood, 1 h at 37° C., four subjects
Experimental: as §1, §2, §3, §4, §5

[1] = tested on: LC3B-II in PBMCs and PMNs; details: 150 μM chloroquine, one-hour, isolated PBMCs and PMNs in RPMI, N=3
Experimental: as §6, §6, §3, §4

lithium heparin [lithium-heparin]
autophagic flux (ΔLC3B-II) by anti-coagulant of the collection tube (LC3B-II in PBMCs; lithium-heparin compared with EDTA tubes, 150 μM chloroquine one-hour at 37° C., three subjects): greater

O=C([O-])CN(CCN(CC(=O)[O-])CC(=O)O)CC(=O)[O-].[K+].[K+].[K+] [EDTA]
LC3B-II signal in no-chloroquine samples (basal state) (LC3B-II in PBMCs; EDTA tubes compared with lithium-heparin tubes, three subjects): lower

CO/C1=C\C(C)=C\[C@@H](C)[C@@H](O)[C@@H](C)C/C(C)=C/C=C/[C@H](OC)[C@@H]([C@@H](C)[C@@H](O)[C@H](C)[C@@]2(O)C[C@@H](O)[C@H](C)[C@@H](C(C)C)O2)OC1=O [Bafilomycin, bafilomycin A1]
LC3BII cargo in PBMCs (LC3B-II in PBMCs; whole blood from four individuals, one hour at 37° C., ethanol vehicle): increased LC3BII cargo

CCN(CC)CCCC(C)Nc1ccnc2cc(Cl)ccc12 (stereo not drawn) [chloroquine]
P62 protein abundance (P62 in PBMCs): increased protein abundance with chloroquine treatment was observed in three out of four subjects
P62 level after chloroquine treatment (SQSTM1/P62 in PBMCs): did not change
LC3A response to chloroquine treatment (LC3A in PBMCs): not clearly responding
LC3B-II level (LC3B-II degradation inhibited) [1]: increase in LC3B-II
LC3BII accumulation over time (LC3B-II in PBMCs; 150 μM chloroquine in whole blood, 0-120 minutes of incubation): near-linear increase in LC3BII accumulation
LC3B-II response to chloroquine titration (ΔLC3BII, measure of autophagic flux) (LC3B-II in PBMCs; chloroquine 0-200 μM in whole blood, 1 h at 37° C., four subjects): robust directly proportional increase in response to increasing chloroquine concentration in whole blood up until 150 μM; also recorded: robust, directly proportional increase in response to increasing chloroquine concentration in whole blood up to 150 μM, after which a ceiling effect was observed
